Assay results: PubChem BioAssay AID2060599 (Molecular Pharmacology Branch, DTP, NCI, 2025)

What follows are compounds tested on 817829-284-R-J1-PDC complex spheroids, viability (assay: Anticancer human tumor 817829-284-R-J1-PDC patient-derived colon adenocarcinoma cell line growth inhibition [CLK]). Settings: second compound 0.1 µM; first compound 0.316 µM; active compounds read low.
Summary of the method: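 Multi-cell-type spheroids combined patient-derived tumor cells with HUVEC endothelial cells and human mesenchymal stem cells. Paired agents were dosed in half-log steps down from about clinical Cmax, or from 10 microM where Cmax was unknown.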
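Further: spheroids exposed to the agents for seven days before readout.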

SMILES	viability, T/C [%]
O=C(c1cc(Cc2n[nH]c(=O)c3ccccc23)ccc1F)N1CCN(C(=O)C2CC2)CC1 + CNC(=O)c1ccc(Nc2nc(OC3CCCC3)c3c(-c4ccc5nc(C)oc5c4)c[nH]c3n2)c(OC)c1	30.9
O=c1[nH]cc(F)c(=O)[nH]1 + CNC(=O)c1ccc(Nc2nc(OC3CCCC3)c3c(-c4ccc5nc(C)oc5c4)c[nH]c3n2)c(OC)c1	22.7

Same assay, conditions: second compound 0.1 µM; first compound 1 µM; active compounds read low

SMILES	viability, T/C [%]
CCc1c2c(nc3ccc(O)cc13)-c1cc3c(c(=O)n1C2)COC(=O)[C@]3(O)CC + CNC(=O)c1ccc(Nc2nc(OC3CCCC3)c3c(-c4ccc5nc(C)oc5c4)c[nH]c3n2)c(OC)c1	4.24
Nc1ccn(C2OC(CO)C(O)C2(F)F)c(=O)n1 (configuration not stated) + CNC(=O)c1ccc(Nc2nc(OC3CCCC3)c3c(-c4ccc5nc(C)oc5c4)c[nH]c3n2)c(OC)c1	5.9
O=C(c1cc(Cc2n[nH]c(=O)c3ccccc23)ccc1F)N1CCN(C(=O)C2CC2)CC1 + CNC(=O)c1ccc(Nc2nc(OC3CCCC3)c3c(-c4ccc5nc(C)oc5c4)c[nH]c3n2)c(OC)c1	22.9
O=c1[nH]cc(F)c(=O)[nH]1 + CNC(=O)c1ccc(Nc2nc(OC3CCCC3)c3c(-c4ccc5nc(C)oc5c4)c[nH]c3n2)c(OC)c1	22.6

Same assay, conditions: second compound 0.1 µM; first compound 3.16 µM; active compounds read low

SMILES	viability, T/C [%]
Nc1ccn(C2OC(CO)C(O)C2(F)F)c(=O)n1 (configuration not stated) + CNC(=O)c1ccc(Nc2nc(OC3CCCC3)c3c(-c4ccc5nc(C)oc5c4)c[nH]c3n2)c(OC)c1	5.26
O=C(c1cc(Cc2n[nH]c(=O)c3ccccc23)ccc1F)N1CCN(C(=O)C2CC2)CC1 + CNC(=O)c1ccc(Nc2nc(OC3CCCC3)c3c(-c4ccc5nc(C)oc5c4)c[nH]c3n2)c(OC)c1	24.2
O=c1[nH]cc(F)c(=O)[nH]1 + CNC(=O)c1ccc(Nc2nc(OC3CCCC3)c3c(-c4ccc5nc(C)oc5c4)c[nH]c3n2)c(OC)c1	18.5

Same assay, conditions: second compound 0.1 µM; first compound 10 µM; active compounds read low

SMILES	viability, T/C [%]
Nc1ccn(C2OC(CO)C(O)C2(F)F)c(=O)n1 (configuration not stated) + CNC(=O)c1ccc(Nc2nc(OC3CCCC3)c3c(-c4ccc5nc(C)oc5c4)c[nH]c3n2)c(OC)c1	3.21
O=C(c1cc(Cc2n[nH]c(=O)c3ccccc23)ccc1F)N1CCN(C(=O)C2CC2)CC1 + CNC(=O)c1ccc(Nc2nc(OC3CCCC3)c3c(-c4ccc5nc(C)oc5c4)c[nH]c3n2)c(OC)c1	24.6
O=c1[nH]cc(F)c(=O)[nH]1 + CNC(=O)c1ccc(Nc2nc(OC3CCCC3)c3c(-c4ccc5nc(C)oc5c4)c[nH]c3n2)c(OC)c1	17.6

Same assay, conditions: second compound 0.316 µM; first compound 0.000316 µM; active compounds read low

SMILES	viability, T/C [%]
Cn1ncnc1[C@H]1c2n[nH]c(=O)c3cc(F)cc(c23)N[C@@H]1c1ccc(F)cc1 + CNC(=O)c1ccc(Nc2nc(OC3CCCC3)c3c(-c4ccc5nc(C)oc5c4)c[nH]c3n2)c(OC)c1	24.1

Same assay, conditions: second compound 0.316 µM; first compound 0.001 µM; active compounds read low

SMILES	viability, T/C [%]
Cn1ncnc1[C@H]1c2n[nH]c(=O)c3cc(F)cc(c23)N[C@@H]1c1ccc(F)cc1 + CNC(=O)c1ccc(Nc2nc(OC3CCCC3)c3c(-c4ccc5nc(C)oc5c4)c[nH]c3n2)c(OC)c1	17.5

Same assay, conditions: second compound 0.316 µM; first compound 0.00316 µM; active compounds read low

SMILES	viability, T/C [%]
CCc1c2c(nc3ccc(O)cc13)-c1cc3c(c(=O)n1C2)COC(=O)[C@]3(O)CC + CNC(=O)c1ccc(Nc2nc(OC3CCCC3)c3c(-c4ccc5nc(C)oc5c4)c[nH]c3n2)c(OC)c1	17.3
Cn1ncnc1[C@H]1c2n[nH]c(=O)c3cc(F)cc(c23)N[C@@H]1c1ccc(F)cc1 + CNC(=O)c1ccc(Nc2nc(OC3CCCC3)c3c(-c4ccc5nc(C)oc5c4)c[nH]c3n2)c(OC)c1	20.2

Same assay, conditions: second compound 0.316 µM; first compound 0.01 µM; active compounds read low

SMILES	viability, T/C [%]
CCc1c2c(nc3ccc(O)cc13)-c1cc3c(c(=O)n1C2)COC(=O)[C@]3(O)CC + CNC(=O)c1ccc(Nc2nc(OC3CCCC3)c3c(-c4ccc5nc(C)oc5c4)c[nH]c3n2)c(OC)c1	17
Cn1ncnc1[C@H]1c2n[nH]c(=O)c3cc(F)cc(c23)N[C@@H]1c1ccc(F)cc1 + CNC(=O)c1ccc(Nc2nc(OC3CCCC3)c3c(-c4ccc5nc(C)oc5c4)c[nH]c3n2)c(OC)c1	21.6

Same assay, conditions: second compound 0.316 µM; first compound 0.0316 µM; active compounds read low

SMILES	viability, T/C [%]
CCc1c2c(nc3ccc(O)cc13)-c1cc3c(c(=O)n1C2)COC(=O)[C@]3(O)CC + CNC(=O)c1ccc(Nc2nc(OC3CCCC3)c3c(-c4ccc5nc(C)oc5c4)c[nH]c3n2)c(OC)c1	13
Cn1ncnc1[C@H]1c2n[nH]c(=O)c3cc(F)cc(c23)N[C@@H]1c1ccc(F)cc1 + CNC(=O)c1ccc(Nc2nc(OC3CCCC3)c3c(-c4ccc5nc(C)oc5c4)c[nH]c3n2)c(OC)c1	18.6
Nc1ccn(C2OC(CO)C(O)C2(F)F)c(=O)n1 (configuration not stated) + CNC(=O)c1ccc(Nc2nc(OC3CCCC3)c3c(-c4ccc5nc(C)oc5c4)c[nH]c3n2)c(OC)c1	8.92
O=C(c1cc(Cc2n[nH]c(=O)c3ccccc23)ccc1F)N1CCN(C(=O)C2CC2)CC1 + CNC(=O)c1ccc(Nc2nc(OC3CCCC3)c3c(-c4ccc5nc(C)oc5c4)c[nH]c3n2)c(OC)c1	26.9
O=c1[nH]cc(F)c(=O)[nH]1 + CNC(=O)c1ccc(Nc2nc(OC3CCCC3)c3c(-c4ccc5nc(C)oc5c4)c[nH]c3n2)c(OC)c1	17.6

Same assay, conditions: second compound 0.316 µM; first compound 0.1 µM; active compounds read low

SMILES	viability, T/C [%]
CCc1c2c(nc3ccc(O)cc13)-c1cc3c(c(=O)n1C2)COC(=O)[C@]3(O)CC + CNC(=O)c1ccc(Nc2nc(OC3CCCC3)c3c(-c4ccc5nc(C)oc5c4)c[nH]c3n2)c(OC)c1	7.86
Cn1ncnc1[C@H]1c2n[nH]c(=O)c3cc(F)cc(c23)N[C@@H]1c1ccc(F)cc1 + CNC(=O)c1ccc(Nc2nc(OC3CCCC3)c3c(-c4ccc5nc(C)oc5c4)c[nH]c3n2)c(OC)c1	15.3
Nc1ccn(C2OC(CO)C(O)C2(F)F)c(=O)n1 (configuration not stated) + CNC(=O)c1ccc(Nc2nc(OC3CCCC3)c3c(-c4ccc5nc(C)oc5c4)c[nH]c3n2)c(OC)c1	6.1
O=C(c1cc(Cc2n[nH]c(=O)c3ccccc23)ccc1F)N1CCN(C(=O)C2CC2)CC1 + CNC(=O)c1ccc(Nc2nc(OC3CCCC3)c3c(-c4ccc5nc(C)oc5c4)c[nH]c3n2)c(OC)c1	22
